Laboratory results as given in US20230068687A1, “PROCESS FOR PREPARING A SOLID FORM OF BASIC AMINO ACID SALTS OF POLYUNSATURATED FATTY ACIDS” (SILICYCLE INC., priority 2020, published 2023).

Columns and labels:
[1] = Oxidative status (peroxide value, anisidine value) of starting materials and products as obtained, CDR FoodLab Junior analyzer; type: physicochemical; details: as obtained / as used, before storage
Experimental: The final product in powder form is isolated by evaporating said first and second organic solvents and water from the reaction mixture to recover said basic amino acid salts of PUFAs. Preferably, said evaporation step is carried under reduced pressure between about 0° C.-70° C. depending on the properties of the equipment used. […] The evaporation step requires said first/second organic solvents and water to be in a liquid form, thereby excluding the freeze-drying methods that require the solvents to be frozen. The oxidative status of the obtained final product is quantified by peroxide value (PV), anisidine value (AV) and Totox value. PV is a measure of the level of the primary oxidation products (lipid hydroperoxides) in the product, which is specified in milliequivalents O2 per kg of sample, while the AV is an unspecific measure of saturated and unsaturated carbonyl compounds. Totox is calculated by the equation Totox=2*PV+AV.
(§1) Food Lab Analyzer: Among several techniques known in the art for determining the oxidative levels of a sample, CDR FoodLab® Junior analyzer is used herein for determining PV and AV. The procedures are described as below.
(§2) The solid product 0.5 g was dissolved in 2 mL of MeOH and HCl solution with the ratio of 1:10 (v/v). The mixture was stirred for 5 minutes, followed by the addition of 5 mL of water. The mixture was extracted with 3 mL of Hexane containing 100 ppm butylated hydroxytoluene (BHT). The organic layer was dried over MgSO4, filtrated and evaporated under reduced pressure at the temperature of 0-70° C. to get the fish oil in free acid form, which was evaluated with the CDR FoodLab® Junior analyzer to get anisidine and peroxide values using the Food Lab analyzer.

[2] = Stability examination of L-lysine salts stored in clear vials with closed lids at room temperature (Table 1); type: physicochemical; details: for TOTOX: Totox=2*PV+AV; for AV / PV: closed lids, room temperature
Experimental: The comparison of oxidative status of basic amino acid salts of PUFAs, starting material in ester form and fish oil in free acid form are assessed by measuring the PV and AV, then all the samples are subjected to the same oxidizing condition over a certain period of time, followed by the measuring PV and AV of the samples. The oxidizing conditions are selected from one of: 1) storage in closed containers at atmospheric condition, opened once daily for the first month, twice weekly for the second month, once weekly for the third month and twice a month up to 6 months; 2) storage in loosely closed containers exposed to air at 45° C. for 1 month.
as §1, §2
(§3) The molar ratio of EPA to L-lysine was 1:1. The mixture was stirred at atmospheric condition for 5 minutes to obtain a homogenous solution. 30 mL of ethanol was added to precipitate the L-lysine amino acid salt. […] About 4.5 g of EPA-Lys was stored in a 20 ml of clear vial with a diameter of 27 mm, which was placed with closed lids on the bench at room temperature for the stability examination for 90 days.
as §3, with “ratio of DHA to L-lysine” for “ratio of EPA to L-lysine”
The molar ratio of seal oil in free acid form to L-lysine was 1:1. The mixture was stirred at atmospheric condition for 5 minutes to obtain a homogenous solution. 35 mL of ethanol was added to precipitate the L-lysine amino acid salt.

| SMILES | AV (anisidine value) [1] [A/g] | PV (peroxide value) [1] [meqO2/kg] | TOTOX ([2]; Time 1 d) | AV ([2]; Time 1 d) [A/g] | PV ([2]; Time 1 d) [meq O2/Kg] | TOTOX ([2]; Time 61 d) | AV ([2]; Time 61 d) [A/g] | PV ([2]; Time 61 d) [meq O2/Kg] |
| --- | --- | --- | --- | --- | --- | --- | --- | --- |
| CC/C=C\C/C=C\C/C=C\C/C=C\C/C=C\C/C=C\CCC(=O)O.NCCCC[C@H](N)C(=O)O [DHA-Lys, L-Lysine Salt of Docosahexaenoic Acid] | 29.3 | 16.0 | 61.3 | 29.3 | 16.0 | 11.8 | 4.0 | 3.9 |
| CC/C=C\C/C=C\C/C=C\C/C=C\C/C=C\CCCC(=O)O.NCCCC[C@H](N)C(=O)O [EPA-Lys, L-Lysine Salt of Eicosapentaenoic Acid] | 9.5 | 6.0 | 21.5 | 9.5 | 6.0 | 3.8 | <0.5 | 1.9 |
